Measured values taken from patent publication US20250281498A1, “FUSED AMINO PYRIMIDINE COMPOUNDS FOR TREATMENT OF SYNUCLEINOPATHIES AND TDP-43 PROTEINOPATHIES” (Ovid Therapeutics Inc., priority 2024, published 2025).

How the values were obtained:
[1] = PK studies, brain and plasma levels by LC-MS/MS; assay type: in vivo; settings: mice
Protocol: PK studies. […] Plasma and brain samples were rapidly frozen on dry ice.
Drug accumulation in the brain was examined following SC injection (FIG. 4C; 50 mg/kg).

[2] = system: neuronal cell death in the hippocampus; experiment: neuronal cell death in the hippocampus of mice treated with Compound A and diazepam; assay type: in vivo; settings: Compound A and diazepam vs diazepam alone
KCC2 = biological target: T1, KCC2 (Homo sapiens, UniProt Q9H2X9); experiment: cellular thermal shift assay (CETSA) in HEK-293 cells expressing KCC2; assay type: binding
T1 construct: expressed in transfected cells; host or cells: HEK-293 (ATCC CRL-1573)
T1 sequence (Q9H2X9 1-1116 isoform Q9H2X9-2): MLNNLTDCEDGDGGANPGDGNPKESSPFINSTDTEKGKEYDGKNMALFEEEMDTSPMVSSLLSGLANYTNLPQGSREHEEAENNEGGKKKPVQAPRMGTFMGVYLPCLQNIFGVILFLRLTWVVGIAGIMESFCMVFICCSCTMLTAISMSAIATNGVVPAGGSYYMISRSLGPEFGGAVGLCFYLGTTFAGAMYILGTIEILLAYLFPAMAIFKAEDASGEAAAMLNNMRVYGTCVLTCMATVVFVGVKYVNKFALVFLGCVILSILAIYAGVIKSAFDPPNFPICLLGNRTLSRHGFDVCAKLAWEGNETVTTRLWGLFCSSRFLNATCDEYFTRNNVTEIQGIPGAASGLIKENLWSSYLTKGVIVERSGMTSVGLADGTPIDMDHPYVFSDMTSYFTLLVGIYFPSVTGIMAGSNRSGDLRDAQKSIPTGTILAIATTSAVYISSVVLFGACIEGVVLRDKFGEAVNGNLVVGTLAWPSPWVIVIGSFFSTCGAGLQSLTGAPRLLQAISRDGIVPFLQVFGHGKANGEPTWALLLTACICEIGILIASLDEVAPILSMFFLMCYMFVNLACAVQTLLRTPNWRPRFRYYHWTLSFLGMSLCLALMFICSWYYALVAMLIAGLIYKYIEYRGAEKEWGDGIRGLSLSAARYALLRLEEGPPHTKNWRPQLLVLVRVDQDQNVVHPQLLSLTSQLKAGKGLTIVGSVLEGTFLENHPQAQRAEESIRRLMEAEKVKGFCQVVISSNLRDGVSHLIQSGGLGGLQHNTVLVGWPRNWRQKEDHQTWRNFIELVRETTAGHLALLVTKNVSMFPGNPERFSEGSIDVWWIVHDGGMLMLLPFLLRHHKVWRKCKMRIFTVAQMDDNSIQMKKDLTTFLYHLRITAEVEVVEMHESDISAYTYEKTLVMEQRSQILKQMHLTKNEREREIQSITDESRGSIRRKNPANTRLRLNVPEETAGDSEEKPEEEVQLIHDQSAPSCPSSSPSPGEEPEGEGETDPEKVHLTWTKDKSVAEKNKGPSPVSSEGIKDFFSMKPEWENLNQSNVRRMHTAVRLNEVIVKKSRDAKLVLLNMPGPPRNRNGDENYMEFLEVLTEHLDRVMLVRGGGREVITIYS
Protocol: Cell Culture and biotinylation. HEK-293 cells were purchased from ATCC (CRL-1573) and transfected with human KCC2 and GFP expression plasmids using Lipofectamine 2000. Cells were utilized for experimentation 48-72 h following transfection. Cells were biotinylated at 4° C. using NHS-Biotin. Following lysis and purification on immobilized avidin beads, cell surface and total fractions were subject to immunoblotting as outlined previously (Conway et al., 2017, supra).
Determining if compounds in SSA directly interact with KCC2. This was tested using a cellular thermal shift assay (CETSA), which measures the ability of a drug to modify the thermal stability of its target in whole cells (Kawatkar et al., ACS Chem. Biol. 14, 1913-1920 (2019); Martinez et al., Sci Rep 8, 9472 (2018)).
2×10^6 transfected HEK-293 cells were incubated with 30 μM drug or vehicle for 90 min at 37° C. and then heated from 37-58° C. for 5 min. Cells were rapidly chilled to 25° C. and NP40 was added to a final concentration […] to snap freezing in liquid nitrogen. […]
Aliquots of HEK-293 cells expressing KCC2 were exposed to 30 μM SSA, heated from 37-55° C. The remaining level of soluble native KCC2 at each temperature was measured by immunoblotting and normalized to the level seen at 37° C. which was given a value of 1. […]

## C[C@@H]1CN(c2nc3c(c(Nc4ccc(C5CCCCC5)cc4)n2)COC3)CCO1 [Compound A, (R)—N-(4-cyclohexylphenyl)-2-(2-methylmorpholino)-5,7-dihydrofuro[3,4-d]pyrimidin-4-amine]
[1]; 25 mg/kg IV bolus
  time at which accumulation in the brain was evident: ≤ 30 min
[1]; SC 50 mg/kg
  brain level 8 h later: maintained
  time at which accumulation in the brain was detected: 30 min
  time of maximal concentration in the brain: 4 h
[2]
  neuronal cell death in the hippocampus: significantly reduced
KCC2
  direct binding to KCC2 as measured using CETSA: capable of directly binding to KCC2
